# Test results from paper doi:10.1101/2024.05.17.594634, “Protein Structure Inspired Drug Discovery” (bioRxiv, 2024).
# Legend:
# human CD34+ stem cells = experiment: Bone marrow stem cell (hematopoietic) colony formation assay; assay type: cell-based; settings: for mean number of colonies, % of control, 14 day / mean number of colonies, % of control, 8 day: 40 μM compound, mean N=2; for mean number of colonies, % of control, 14 day: 14 days; for mean number of colonies, % of control, 8 day: total colonies at 8 days
# Procedure: In parallel with measuring growth inhibition of cancer cell growth, we measured effect on human hematopoietic stem cells. Hematopoietic stem cells reside in the bone marrow and are the source of mature cells present in blood.[66] Bone marrow is one of the most sensitive organs in the body to drug toxicity, especially so for anticancer drugs where it can approach 100%.[67–69] Bone marrow toxicity was measured by performing hematopoietic colony formation assays on human CD34+ stem cells. The stem cell nature of this assay permitted assessment of trilineage colony formation: granulocytic (white blood cells), erythrocytic (red blood cells) and megakaryocytic (platelets), measured by the formation of CFU-GM (colony-forming-granulocyte-macrophage), BFU-E (erythroid burst-forming unites) and CFU-GEMM (colony-forming unit-granulocyte, erythrocyte, monocyte, megakaryocyte) colonies, respectively. Two measurements were taken. Total colonies at eight days were measured, thereby matching the eight-day time frame of cancer cell colony formation assays. At fourteen days, individual colonies have differentiated, permitting quantification of each lineage. Human hematopoietic stem cell trilineage colony formation assays were performed as previously described by us.[65] Briefly, human cord blood CD34+ cells (catalog #: 70008.5) were purchased from StemCell Technology Inc., and seeded at 1 × 10^4 cells per 35 mm dish. Cells were cultured in MethoCult™ Express (StemCell Technologies, Inc.) semisolid media, per manufacturer’s instructions, in the presence of compound or vehicle control. At eight days colonies, i.e., groups of ≥ 10 cells, were counted. At fourteen days, individual colonies of BFU-E, CFU-GM and CFU-GEMM were identified based on manufacturers’ morphologic characterization criteria. Assays were run in replicates of N = 2; some were run in replicates of N = 3, as denoted.
# HT29 colon cancer cells = experiment: Eight-day colony formation assay, HT29; assay type: cell-based, human
# Procedure: (§1) We sought to identify compounds that would inhibit the growth of cancer cells, but that also did so selectively. Inhibition of cancer cell growth is a highly sought after attribute of anticancer agents. This was assessed by measuring the ability of a compound to inhibit cell growth in eight-day colony formation assays, examining concentrations ranging from 0.017 to 40 μM. Breast, colon, lung and prostate cancer are four of the most common causes of cancer in the United States, are major causes of cancer cell death, and were examined.[64] Two cell lines for each cancer type were assessed: A549 (adenocarcinoma) and H226 (squamous carcinoma) for lung, MCF-7 (estrogen receptor [ER] positive) and MDA-MB-231 (ER negative) for breast, LNCaP (androgen receptor [AR] positive) and PC3-M (AR negative) for prostate, and HCT116 (wild type p53, mutated KRAS) and HT29 (p53 mutant) for colon.[65]
# (§2) In considering effect on cancer cells, for each compound and each cell line tested we calculated the efficacy ratio, i.e., efficacy ratio = (percent of remaining cancer cell colonies)/(percent of remaining bone marrow colonies), at 8 days after treatment with 40 μM compound (S4 Fig). We considered those with an efficacy ratio below 0.5 as active and at least partially selective. The stringency of this is highlighted by considering the effect of 5FU on colon cancer, where it is frequently used clinically in proven curative settings, as well as proven life prolonging settings.[70, 71] […] Even at 5.7 μM, where 5FU is toxic to bone marrow, with hematopoietic colony formation at 38% of control, the efficacy ratio for HT29 cells has only dropped to 0.52. […] It can be seen that compounds segregate to protein sites. Specifically, of 10 compounds meeting this activity criteria (i.e., efficacy ratio <0.5), 3 were directed at the Dxr2 site, 3 at FolC2, 2 at FolC1, 1 at Dxr1 and 1 at TYLT.
# (§3) Eight-day colony formation assays of cancer cells were performed as described by us.[87] Briefly, 0.5–1.0 × 10^3 cells were seeded into a 12 well plate, after 24 hours compound added and eight days later colonies (of 3 or more cells) were scored after trypan blue staining. Conditions were in replicates of N = 2. All compounds were stored under desiccated conditions in a sealed container at minus 20°C upon arrival. One day prior to use, they were placed into DMSO, stored at […] as stock solutions, thawed just prior to use, and not reused.
# HT116 colon cancer cells = experiment: Eight-day colony formation assay, HT116; assay type: cell-based, human
# Procedure: as §1, §2, §3
# [1] = test system: MCF-7 breast cancer cells; experiment: Eight-day colony formation assay, MCF-7; assay type: cell-based, human
# Procedure: as §1, §2, §3
# [2] = test system: MDA-MB-231 breast cancer cells; experiment: Eight-day colony formation assay, MDA-MB-231; assay type: cell-based, human; settings: MDAMB231
# Procedure: as §1, §2, §3
# H226 lung cancer cells = experiment: Eight-day colony formation assay, H226; assay type: cell-based, human
# Procedure: as §1, §2, §3
# A549 lung cancer cells = experiment: Eight-day colony formation assay, A549; assay type: cell-based, human
# Procedure: as §1, §2, §3
# [3] = test system: PC3-M prostate cancer cells; experiment: Eight-day colony formation assay, PC3-M; assay type: cell-based, human
# Procedure: as §1, §2, §3
# [4] = test system: LNCaP prostate cancer cells; experiment: Eight-day colony formation assay, LNCaP; assay type: cell-based, human
# Procedure: as §1, §2, §3
# [5] = test system: human breast, prostate, colon and lung cancer cells; experiment: Eight-day colony formation assays, summary across the cancer cell line panel; assay type: cell-based
# Procedure: as §1, §2, §3
# [6] = test system: HT29, MDA-MB-231 and H226; experiment: NCI-60 cell line screen, other cell lines; assay type: cell-based, human; settings: 10 μM X 48 hours
# Procedure: Above findings support the importance of Dxr2 and FolC2 sites, and of Dxr2-017 and FolC2-001 compounds, respectively. The predicted poses of Dxr2-017 bound to the Dxr2 site and FolC2-001 bound to the FolC2 site are shown (Fig 7). The NCI-60 cell line screen evaluates compound growth inhibition and cell toxicity in a highly standardized manner across 60 different cell lines. Dxr2-017 and FolC2-001 were evaluated in this assay (S5 Fig). NCI-60 screens evaluate compounds at 10 μM X 48 hours. […] Of high interest, in the NCI-60 screen Dxr2-017 had relatively high activity against melanoma cell lines, inducing cell death in 5 cell lines ranging from 25–65%, and inhibiting growth in 4 cell lines ranging from 76–96%. Its impact on cell death represents the most striking relative difference in response across cell lines.
structure (smiles),measurement,setting,value
"O=c1[nH]cc(F)c(=O)[nH]1 [5FU, 5-fluorouracil, reference compound]",effect on bone marrow,human CD34+ stem cells; 0.82 μM,no effect
same,effect on bone marrow colony formation,human CD34+ stem cells; 5.7 μM,profound suppressive effects
same,"hematopoietic colony formation, % of control",human CD34+ stem cells; 5.7 μM,38 % of control
same,effect on bone marrow colony formation,human CD34+ stem cells; 40 μM,completely suppresses colony formation
same,efficacy ratio,HT29 colon cancer cells; 0.82 μM,0.82
same,efficacy ratio (cancer cell colonies to bone marrow colonies at 8 days),HT29 colon cancer cells; 5.7 μM,0.52
Cc1nnsc1C(=O)OCCCn1c(=O)[nH]c2ccccc21 [Dxr2-001],"mean number of colonies, % of control, 14 day",human CD34+ stem cells,93 % of control
same,"mean number of colonies, % of control, 8 day",human CD34+ stem cells,109 % of control
c1ccc(CCc2n[nH]c(-c3ccccn3)n2)cc1 [FolC1-031],"mean number of colonies, % of control, 14 day",human CD34+ stem cells,85 % of control
same,"mean number of colonies, % of control, 8 day",human CD34+ stem cells,80 % of control
O=C(Cn1c(=O)oc2ccccc21)N1CCn2c1nc1ccccc12 [FolC2-001],"mean number of colonies, % of control, 14 day",human CD34+ stem cells,87 % of control
same,"mean number of colonies, % of control, 8 day",human CD34+ stem cells,108 % of control
same,efficacy ratio (cancer cell colonies to bone marrow colonies at 8 days),HT116 colon cancer cells; 5.7 μM,0.85
same,efficacy ratio (cancer cell colonies to bone marrow colonies at 8 days),HT116 colon cancer cells; 40 μM,0.60
same,efficacy ratio (cancer cell colonies to bone marrow colonies at 8 days),HT29 colon cancer cells; 5.7 μM,1.13
same,efficacy ratio (cancer cell colonies to bone marrow colonies at 8 days),HT29 colon cancer cells; 40 μM,0.79
same,efficacy ratio (cancer cell colonies to bone marrow colonies at 8 days),[1]; 5.7 μM,0.65
same,efficacy ratio (cancer cell colonies to bone marrow colonies at 8 days),[1]; 40 μM,0.43
same,efficacy ratio (cancer cell colonies to bone marrow colonies at 8 days),[2]; 5.7 μM,0.81
same,efficacy ratio (cancer cell colonies to bone marrow colonies at 8 days),[2]; 40 μM,0.28
same,efficacy ratio (cancer cell colonies to bone marrow colonies at 8 days),H226 lung cancer cells; 5.7 μM,0.56
same,efficacy ratio (cancer cell colonies to bone marrow colonies at 8 days),H226 lung cancer cells; 40 μM,0.00
same,efficacy ratio (cancer cell colonies to bone marrow colonies at 8 days),A549 lung cancer cells; 5.7 μM,0.99
same,efficacy ratio (cancer cell colonies to bone marrow colonies at 8 days),A549 lung cancer cells; 40 μM,0.53
same,efficacy ratio (cancer cell colonies to bone marrow colonies at 8 days),[3]; 5.7 μM,0.96
same,efficacy ratio (cancer cell colonies to bone marrow colonies at 8 days),[3]; 40 μM,0.41
same,efficacy ratio (cancer cell colonies to bone marrow colonies at 8 days),[4]; 5.7 μM,0.82
same,efficacy ratio (cancer cell colonies to bone marrow colonies at 8 days),[4]; 40 μM,0.34
same,number of cell lines exhibiting an efficacy ratio below 0.5,[5]; 40 μM,5 cell lines
same,"relative activity for a given compound, % (% of cells tested where ratio is <0.5)",[5]; 40 μM,63%
same,fold higher mean efficacy ratio than that of Dxr2-017,"[5]; 40 μM, cells with ratio below 0.5, P = 0.001",9.7 fold
same,mean efficacy ratio for cells/compounds where the efficacy ratio is below 0.5,"[5]; 40 μM, mean ± SEM",0.29 ± 0.09
same,efficacy at concentrations below 40 μM,[5],some degree of efficacy observed
same,activity in NCI-60 screen,[6],against H226
O=C(CCc1c[nH]c2ccccc12)N1CCSc2ccccc21 [FolC2-005],"mean number of colonies, % of control, 14 day",human CD34+ stem cells,101 % of control
same,"mean number of colonies, % of control, 8 day",human CD34+ stem cells,105 % of control
same,efficacy ratio (cancer cell colonies to bone marrow colonies at 8 days),HT116 colon cancer cells; 40 μM,0.70
same,efficacy ratio (cancer cell colonies to bone marrow colonies at 8 days),HT29 colon cancer cells; 40 μM,0.06
same,efficacy ratio (cancer cell colonies to bone marrow colonies at 8 days),[1]; 40 μM,0.33
same,efficacy ratio (cancer cell colonies to bone marrow colonies at 8 days),[2]; 40 μM,0.78
same,efficacy ratio (cancer cell colonies to bone marrow colonies at 8 days),H226 lung cancer cells; 40 μM,0.11
same,efficacy ratio (cancer cell colonies to bone marrow colonies at 8 days),A549 lung cancer cells; 40 μM,0.69
same,efficacy ratio (cancer cell colonies to bone marrow colonies at 8 days),[3]; 40 μM,0.00
same,efficacy ratio (cancer cell colonies to bone marrow colonies at 8 days),[4]; 40 μM,0.28
same,"relative activity for a given compound, % (% of cells tested where ratio is <0.5)",[5]; 40 μM,63%
same,efficacy at concentrations below 40 μM,[5],A similar phenomenon is observed
O=C(Nc1nnn[nH]1)c1cc(-c2ccccc2)nc2ccccc12 [PRT-051],"mean number of colonies, % of control, 14 day",human CD34+ stem cells,119 % of control
same,"mean number of colonies, % of control, 8 day",human CD34+ stem cells,93 % of control
O=C(Cc1n[nH]c(=O)c2ccccc12)Nn1cnc2ccccc21 [TYLT-001],"mean number of colonies, % of control, 14 day",human CD34+ stem cells,103 % of control
same,"mean number of colonies, % of control, 8 day",human CD34+ stem cells,117 % of control
O=C(COC(=O)c1cccs1)c1ccc2[nH]c(=O)[nH]c2c1 [TYLT-003],"mean number of colonies, % of control, 14 day",human CD34+ stem cells,94 % of control
same,"mean number of colonies, % of control, 8 day",human CD34+ stem cells,97 % of control
